“Also recorded” adds a separate entry of the source.
Legend:
water solubility = conditions: H2O
[1] = helicity by circular dichroism; assay type: physicochemical; conditions: for % α-helicity: CD, SDS micelles (30 mM), pH = 7.0, 18° C.
Experimental: Circular Dichroism. All of the circular dichroism experiments were carried out on Aviv Associates model 60DS using an Endcal Model RTE4DD water circulator as a temperature-control vehicle. The instrument was calibrated by using d-10-camphorsulphonic acid. The spectra were recorded between 200 and 250 nm by using the continuous mode with a 1.5 nm bandwidth, a three second response and a scan step of 0.5 nm in a cell with a path length of 0.1 cm. Three or five scans were accumulated and averaged for each spectrum. Glycopeptide stock solutions were prepared by weighing the required amount, using Cahn/Ventron Instruments Model 21 automatic analytical electrobalance, to make 1 mL of a 0.5-1.0 mM solution and the pH was adjusted to the desired value. Samples were prepared by diluting the stock solution to 70-80 μM. All observed spectra were baseline-subtracted and smoothed by adjacent average of 5 points using Microcal Origin Ver. 5.0 software (Microcal Software Inc, USA). The molar ellipticities were determined using the formula [θ]=[θ]obs·(MRW)/10·l·C, where [θ]obs observed ellipticity in millidegrees, MRW is the mean residue weight, l is the cell path length in centimeters and C is the glycopeptide concentration in mg/mL. The percent α-helicity was determined by using the formula % helix=[θ]n→π*/−40,000 (1−2.5/n)·100, where n represents the number of amide bonds (including the C-terminal amide) in the glycopeptide and [θ]n→π** is molar ellipticity of n→π* transition band at 222 nm.^55
Conformational Analysis by CD. Circular dichroism (CD) is a powerful and simple tool for identifying secondary structure in both peptides and proteins.^64 All the peptides were subjected to CD analysis in H2O, TFE-H2O mixtures, SDS micelles and phospholipid bicelles. In H2O, a negative band near 200 nm is observed that arises from the π→π* electronic transition and is typical of random coil peptides. […] This behavior is explained as nascent helices.^65 In these nascent helices, helix CD signals could be induced by the addition of TFE.^66 All the glycopeptides gave an increased helix CD signal in TFE. The percentage of helicity increases as TFE concentration increases, but reached a maximum at 30% TFE. The increase in helicity in TFE can be attributed to decreased competition by H2O for hydrogen bonding to the backbone amides. […] In the presence of SDS micelles and anionic bicelles, the band at 200 nm underwent a red shift (higher value) and an additional shoulder appears around 222 nm as a result of the n→π* transition. […] The negative maxima at 222 nm (n→π* transition band) is used to calculate the helical content of polypeptides and proteins. The accepted value for a peptide that is 100% helical is approximately −35,000. It was observed that changes in amplitude of the bands up to 30% depend on length of helix.^67 The amplitude increases as α-helical chain length increases. Therefore, one has to consider the importance of chain-length dependence of the α-helix CD in the quantitative treatment of helix content in proteins and polypeptides. The percentage of helicity is independent of SDS concentration and pH (data not shown). In the presence of zwitterionic bicelles all of the glycopeptides yielded CD spectra similar to that observed in H2O, but anionic bicelles forced them to become more helical. The intensities of the [θ]π→π* band and the [θ]n→π* band are expected to be almost equal for a perfect α-helical peptide. […] A modest blue shift and reduced intensity for the [θ]n→π* transition bands are observed for all the glycopeptides in TFE. […] The glycopeptides 9 (Pro/Glc) and 12 (Pro/Lactose), which differ only by the sugar moiety attached, adopt perfect helices in the presence of SDS micelles and in anionic bicelles. The disaccharide increased the percentage of helicity in all the solvents, relative to the monosaccharide. […] It is remarkable to note that a single amino acid mutation at position 6 produced profound changes in the CD spectra. […]

[2] = in vivo antinociception after i.c.v. administration; set-up: species or system mice; conditions: for A50 i.c.v.: antinociception
δ opioid receptor = δ opioid receptor (Homo sapiens, UniProt P41143); test: opioid receptor binding, δ receptor
μ opioid receptor = μ opioid receptor (Homo sapiens, UniProt P35372); test: opioid receptor binding, μ receptor
[3] = blood-brain barrier uptake / penetration; conditions: mice
[4] = helicity by NMR αCH chemical shift index; assay type: physicochemical
Experimental: NMR Spectroscopy. All NMR spectra were recorded on a Bruker DRX600 600 MHz spectrometer. Glycopeptide concentration for the NMR experiments varied from 2-3 mM. The glycopeptides were prepared in TFE-water solution by dissolving the peptide in 0.6 ml solution of a premixed 30% TFE-water mixture. The micelle samples were prepared by dissolving the glycopeptide and 100 equivalent of perdeuterated SDS in 0.6 ml of H2O/D2O (9:1 ratio by volume). Bicelles were produced from deuterated phospholipids. The zwitterionic bicelles were made by mixing the short chain phospholipid dihexanoyl-sn-glycero-3-phosphatidylcholine-d22 (DHPC) and the long chain 1,2-dimyristoyl-sn-glycero-3-phosphatidylcholine-d54 (DMPC) in the molar ratio of 2:1 in H2O. The […] were prepared by substituting 10 mol % of 1,2-dimyristoyl-sn-glycero-3-phospho-1-glycerol-d54 (DMPG) for DMPC. The glycopeptide to bicelle ratio was 1:25. After the glycopeptide was added to the bicelle solution, the system was submitted to a series o f three freeze/thaw/slight vortex shaking cycles. The pH of the each sample was adjusted to 4.5 by using DCl or NaOD as necessary. TSP (3-(trimethylsilyl)-d4-propionic acid) was added as an internal standard. The experiments in F3CCD2OD/H2O mixtures were at 293 K and for experiments in micelles/bicelles were at 298 or 311 K. Two-dimensional double quantum filtered correlation (DQF-COSY), rotating-frame Overhauser enhancement^56 (ROESY), Nuclear Overhauser enhancement^57 (NOESY), and total correlation spectra^58 (TOCSY) were acquired using standard pulse sequences and processed using XWINNMR (Bruker Inc) and FELIX2000 (Accelrys Inc, San Diego, Calif.), Mixing times for TOCSY spectra were either 80 or 100 ms. Mixing times for ROESY spectra were 150 or 250 ms, and for NOESY spectra were 200 or 300 ms. All experiments were 750 increments in t1, 16/32/64 scans each, 1.5 s relaxation delay, size 2 or 4K, and the spectral processing was with shifted sine bell window multiplications in both dimensions.
αCH Chemical Shift Index. […] At this point there is no accepted random coil αCH values for glycosylated serine, CSI values for this position are uncertain. The conformational shift values for all solvents were obtained using the random coil values described by Wright and co-workers.^72 Although, these reference shifts were obtained at pH=5.0 at 4.2° C., they appear to be very insensitive to the conditions, as very small deviations (±0.04) were observed when random coil values are obtained at pH=7.0 at 35° C. by Wuthrich and co-workers.^68 The quantification of secondary structure based on αCH chemical shifts is neglected in the literature because various contributions cannot be strictly accounted for, such as electrostatic effects, ring current shifts, and other magnetic anisotropies. However, it is possible to make qualitative comparison of helical content between closely related (glyco)peptides. Since the 3rd generation glycopeptides differ by only one amino acid at position 6, the helical content was obtained based on the αCH chemical shift values (Table 3). The method described by Gierasch and co-workers^69a was used. First, the average conformational shift was calculated for each glycopeptide by adding all upfield shifts in the helical regions and dividing by the total number of peptide bonds. Then, to obtain the overall helical content for each glycopeptide, the average conformational shift was divided by 0.35 ppm, which was assigned for 100% helicity. Since, there are no random coil values available for β-Alanine and glycosylated serine residues, they were not included in the calculation. The helicogenic Aib residue lacks an α-proton, and there was no correction included in the calculation for the helicity provided by Aib residue. The helical content obtained by this method correlated with the helical content obtained by CD. […]

δ opioid receptor, sequence (P41143 whole entry): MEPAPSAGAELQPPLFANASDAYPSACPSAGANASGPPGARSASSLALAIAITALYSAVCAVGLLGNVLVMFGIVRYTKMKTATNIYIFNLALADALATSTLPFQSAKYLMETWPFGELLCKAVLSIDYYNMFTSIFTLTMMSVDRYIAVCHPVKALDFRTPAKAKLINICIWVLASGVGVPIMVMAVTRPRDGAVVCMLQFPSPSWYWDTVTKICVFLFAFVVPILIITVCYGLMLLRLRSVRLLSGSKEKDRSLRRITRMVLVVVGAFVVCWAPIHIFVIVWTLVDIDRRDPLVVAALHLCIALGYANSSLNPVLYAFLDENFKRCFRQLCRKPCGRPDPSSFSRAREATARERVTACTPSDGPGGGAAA
μ opioid receptor, sequence (P35372 whole entry): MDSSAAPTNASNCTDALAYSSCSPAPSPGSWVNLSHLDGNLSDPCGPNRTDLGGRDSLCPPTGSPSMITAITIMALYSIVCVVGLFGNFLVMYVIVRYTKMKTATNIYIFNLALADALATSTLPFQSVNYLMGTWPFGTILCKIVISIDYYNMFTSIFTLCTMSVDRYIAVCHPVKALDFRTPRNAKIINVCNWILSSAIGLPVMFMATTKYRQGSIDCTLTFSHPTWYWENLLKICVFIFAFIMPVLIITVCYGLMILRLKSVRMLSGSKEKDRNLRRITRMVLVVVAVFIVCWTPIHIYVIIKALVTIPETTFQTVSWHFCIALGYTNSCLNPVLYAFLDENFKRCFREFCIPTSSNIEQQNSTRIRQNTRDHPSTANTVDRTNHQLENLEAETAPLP

Row | SMILES | water solubility (water solubility) | % α-helicity [1] | A50 i.c.v. ([2]; i.c.v., mice) | IC50 (δ opioid receptor) | IC50 (μ opioid receptor) | further results
1 | CC(C)C[C@H](NC(=O)[C@H](C)NC(=O)[C@H](CC(N)=O)NC(=O)[C@H](Cc1ccccc1)NC(=O)[C@H](Cc1c[nH]c2ccccc12)NC(=O)[C@H](CCCCN)NC(=O)[C@H](CO[C@@H]1O[C@H](CO)[C@@H](O)[C@H](O)[C@H]1O)NC(=O)[C@H](C)NC(=O)[C@H](CC(C)C)NC(=O)[C@H](CCC(=O)O)NC(=O)CNC(=O)[C@H](CC(C)C)NC(=O)[C@H](Cc1ccccc1)NC(=O)CNC(=O)[C@H](NC(=O)[C@@H](N)Cc1ccc(O)cc1)[C@H](C)O)C(=O)N[C@@H](CCC(=O)O)C(N)=O (relative stereo) [Glycopeptide 1, YtGFLGELAS*KWFNALE] | H2O insoluble | 85% | – | – | – | –
2 | CC(C)C[C@H](NC(=O)[C@H](C)NC(=O)[C@H](CC(N)=O)NC(=O)[C@H](Cc1ccccc1)NC(=O)[C@H](Cc1c[nH]c2ccccc12)NC(=O)[C@H](CCCCN)NC(=O)[C@H](CO[C@@H]1O[C@H](CO)[C@@H](O)[C@H](O)[C@H]1O)NC(=O)[C@H](C)NC(=O)[C@H](CC(C)C)NC(=O)[C@H](CCC(=O)O)NC(=O)CNC(=O)[C@H](CC(C)C)NC(=O)[C@H](Cc1ccccc1)NC(=O)CNC(=O)[C@H](NC(=O)[C@@H](N)Cc1ccc(O)cc1)[C@H](C)O)C(=O)N[C@@H](CCC(=O)O)C(=O)N[C@@H](CO[C@@H]1O[C@H](CO)[C@@H](O)[C@H](O)[C@H]1O)C(N)=O (relative stereo) [Glycopeptide 2, YtGFLGELAS*KWFNALES*] | appreciable water solubility; also recorded: significant solubility in water | 67% | 0.27 nmol | 9.5 nM | 144 nM | potency relative to morphine ([2]; i.c.v. administration, more potent than morphine): roughly 18 times; A50 value after i.c.v. administration ([2]; i.c.v., mice): 120 pmoles per mouse; receptor selectivity (in words) (δ opioid receptor; δ versus μ, receptor binding assays): somewhat δ-selective
3 | CC(C)C[C@H](NC(=O)[C@H](C)NC(=O)[C@H](CC(N)=O)NC(=O)[C@H](Cc1ccccc1)NC(=O)[C@H](Cc1c[nH]c2ccccc12)NC(=O)[C@H](CCCCN)NC(=O)[C@H](CO[C@@H]1O[C@H](CO)[C@@H](O)[C@H](O)[C@H]1O)NC(=O)[C@H](C)NC(=O)[C@H](CC(C)C)NC(=O)[C@H](CCC(=O)O)NC(=O)CNC(=O)[C@H](CC(C)C)NC(=O)[C@H](Cc1ccccc1)NC(=O)CNC(=O)[C@H](NC(=O)[C@@H](N)Cc1ccc(O)cc1)[C@H](C)O)C(=O)N[C@@H](CCC(=O)O)C(=O)N[C@@H](CO[C@@H]1O[C@H](CO)[C@@H](O)[C@H](O)[C@H]1O)C(=O)N[C@@H](Cc1ccccc1)C(N)=O (relative stereo) [Glycopeptide 3, YtGFLGELAS*KWFNALES*F] | H2O insoluble | 65% | – | – | – | –
4 | CC(C)C[C@H](NC(=O)[C@H](C)NC(=O)[C@H](CC(N)=O)NC(=O)[C@H](Cc1ccccc1)NC(=O)[C@H](Cc1c[nH]c2ccccc12)NC(=O)[C@H](CCCCN)NC(=O)[C@H](CO[C@@H]1O[C@H](CO)[C@@H](O)[C@H](O)[C@H]1O)NC(=O)[C@H](C)NC(=O)[C@H](CC(C)C)NC(=O)[C@H](CCC(=O)O)NC(=O)CNC(=O)[C@H](CC(C)C)NC(=O)[C@H](Cc1ccccc1)NC(=O)CNC(=O)[C@H](NC(=O)[C@@H](N)Cc1ccc(O)cc1)[C@H](C)O)C(=O)N[C@@H](CCC(=O)O)C(=O)N[C@@H](CO[C@@H]1O[C@H](CO)[C@@H](O)[C@H](O)[C@H]1O)C(=O)N[C@@H](Cc1ccccc1)C(=O)N[C@@H](Cc1c[nH]c2ccccc12)C(N)=O (relative stereo) [Glycopeptide 4, YtGFLGELAS*KWFNALES*FW] | H2O insoluble | 82% | – | – | – | –
5 | CC(C)C[C@H](NC(=O)[C@H](CO[C@@H]1O[C@H](CO)[C@@H](O)[C@H](O)[C@H]1O)NC(=O)[C@H](CCCCN)NC(=O)[C@H](CC(C)C)NC(=O)[C@H](C)NC(=O)[C@H](CCCCN)NC(=O)[C@H](CCC(=O)O)NC(=O)C(C)(C)NC(=O)[C@H](CC(C)C)NC(=O)[C@H](CC(N)=O)NC(=O)CCNC(=O)[C@H](CC(C)C)NC(=O)[C@H](Cc1ccccc1)NC(=O)CNC(=O)[C@H](NC(=O)[C@@H](N)Cc1ccc(O)cc1)[C@H](C)O)C(N)=O (relative stereo) [Glycopeptide 10, YtGFLβANLBEKALKS*L] | – | – | 0.030 nmol | 109 nM | 153 nM | BBB uptake [3]: 0.183 microliters per min per gram of cortex; % α-helicity by NMR ([4]; solvent H2O): 17%; % α-helicity by NMR ([4]; solvent SDS micelles): 55%; % α-helicity by NMR ([4]; solvent TFE): 32%; % α-helicity by CD ([1]; solvent Bicelle A (anionic bicelles)): 27%; % α-helicity by CD ([1]; solvent H2O): >1%; % α-helicity by CD ([1]; solvent SDS micelles): 29%; % α-helicity by CD ([1]; solvent TFE): 22%

Reference: US7803764B2, “Amphipathic glycopeptides” (The Arizona Board of Regents on Behalf of the University of …, priority 2004, dated 2010)
